Converted amounts (≈) assume the structure as drawn.
Legend:
Enterobacter cloacae = assay: Antibacterial activity against Enterobacter cloacae expressing P99; type: functional
Serratia marcescens = assay: Antibacterial activity against Serratia marcescens expressing AmpC and Smel; type: functional
Beta-lactamase = Beta-lactamase (Enterobacter cloacae, UniProt P05364)
Description: Inhibition of Enterobacter cloacae AmpC

[1] = target: Beta-lactamase TEM (Escherichia coli) (UniProt P62593); assay: Antibacterial activity against Escherichia coli expressing TEM1; type: functional
Sequence of Beta-lactamase TEM (Escherichia coli) (P62593 whole entry): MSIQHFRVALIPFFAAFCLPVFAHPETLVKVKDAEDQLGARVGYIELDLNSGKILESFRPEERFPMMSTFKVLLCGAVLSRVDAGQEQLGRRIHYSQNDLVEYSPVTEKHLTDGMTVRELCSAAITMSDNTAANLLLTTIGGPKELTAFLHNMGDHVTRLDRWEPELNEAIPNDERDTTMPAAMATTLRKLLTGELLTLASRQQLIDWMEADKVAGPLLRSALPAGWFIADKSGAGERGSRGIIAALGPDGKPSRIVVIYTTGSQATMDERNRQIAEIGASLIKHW

Beta-lactamase TEM = Beta-lactamase TEM (Escherichia coli, UniProt P62593); assay: Inhibition of Escherichia coli TEM1
Sequence of Beta-lactamase TEM (P62593 whole entry): as above

Pseudomonas aeruginosa = assay: Antibacterial activity against Pseudomonas aeruginosa expressing AmpC; type: functional
[2] = target: T1, Imipenem-hydrolyzing beta-lactamase (Enterobacter cloacae, UniProt P52663); assay: Inhibition of Enterobacter cloacae Imi1
T1 sequence (P52663 whole entry): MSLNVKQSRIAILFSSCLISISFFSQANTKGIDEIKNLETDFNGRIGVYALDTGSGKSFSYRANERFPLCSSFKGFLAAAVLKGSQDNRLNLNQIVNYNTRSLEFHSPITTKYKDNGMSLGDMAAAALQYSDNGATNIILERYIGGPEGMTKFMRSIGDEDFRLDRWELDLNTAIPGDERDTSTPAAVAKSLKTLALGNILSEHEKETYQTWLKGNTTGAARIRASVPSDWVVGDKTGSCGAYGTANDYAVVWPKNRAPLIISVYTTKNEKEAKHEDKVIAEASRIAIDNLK

[3] = target: Metallo-beta-lactamase type 2 (Bacteroides fragilis, UniProt P25910); assay: Inhibition of Bacteroides fragilis CcrA
Sequence of Metallo-beta-lactamase type 2 (P25910 whole entry): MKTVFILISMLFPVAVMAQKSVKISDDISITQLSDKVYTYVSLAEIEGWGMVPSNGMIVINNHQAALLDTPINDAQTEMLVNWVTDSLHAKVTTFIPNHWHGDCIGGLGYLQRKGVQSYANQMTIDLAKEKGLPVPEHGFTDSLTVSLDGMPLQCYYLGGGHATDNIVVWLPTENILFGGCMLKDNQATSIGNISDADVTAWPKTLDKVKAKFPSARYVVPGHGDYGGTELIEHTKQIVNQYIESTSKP

Escherichia coli [4] = assay: Antibacterial activity against Escherichia coli expressing TEM1 in iv dosed murine acute lethal infection model in presence of piperacillin; type: functional
Klebsiella aerogenes [5] = assay: Antibacterial activity against Enterobacter aerogenes expressing AmpC in iv dosed murine acute lethal infection model in presence of piperacillin; type: functional
[6] = Inhibition of GC1
[7] = Inhibition of SHV1
Escherichia coli [8] = assay: Antibacterial activity against Escherichia coli expressing TEM1 in iv dosed murine acute lethal infection model; type: functional
Klebsiella aerogenes [9] = assay: Antibacterial activity against Enterobacter aerogenes expressing AmpC in iv dosed murine acute lethal infection model; type: functional

Sequence of Beta-lactamase (P05364 whole entry): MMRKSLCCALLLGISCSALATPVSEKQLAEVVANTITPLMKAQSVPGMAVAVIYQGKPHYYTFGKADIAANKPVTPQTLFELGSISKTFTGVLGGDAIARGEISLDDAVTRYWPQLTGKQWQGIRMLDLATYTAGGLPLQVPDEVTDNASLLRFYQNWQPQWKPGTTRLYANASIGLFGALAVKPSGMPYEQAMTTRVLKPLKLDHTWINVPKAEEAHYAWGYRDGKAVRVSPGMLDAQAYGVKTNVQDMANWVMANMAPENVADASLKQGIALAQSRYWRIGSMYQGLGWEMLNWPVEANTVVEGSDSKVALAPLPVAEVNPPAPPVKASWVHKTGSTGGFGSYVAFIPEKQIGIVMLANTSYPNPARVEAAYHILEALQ

Q: Which MIC (Enterobacter cloacae) does the source give for `CN1CCn2cc(/C=C3/C(=O)N4C(C(=O)[O-])=CS[C@H]34)nc2C1.[Na+]` here?
A: 1 µg/mL

Q: And the MIC (Serratia marcescens)?
A: 1 µg/mL

Q: And the IC50 (Beta-lactamase)?
A: 6 nM

Q: What about the MIC [1] of the same molecule?
A: 16 µg/mL

Q: And the IC50 (Beta-lactamase TEM)?
A: 4 nM

Q: What about the MIC (Pseudomonas aeruginosa) of the same molecule?
A: 4 µg/mL

Q: And the IC50 [2]?
A: 22 nM

Q: For `O=C([O-])C1=CS[C@@H]2/C(=C\c3cn4c(n3)CSCC4)C(=O)N12.[Na+]`, which MIC (Enterobacter cloacae) is on record?
A: 8 µg/mL

Q: What about the MIC (Serratia marcescens) of the same molecule?
A: 8 µg/mL

Q: What about the IC50 (Beta-lactamase) of the same molecule?
A: 2 nM

Q: And the MIC [1]?
A: 8 µg/mL

Q: What about the IC50 [3] of the same molecule?
A: 8 nM

Q: And the IC50 (Beta-lactamase TEM)?
A: 3 nM

Q: What about the MIC (Pseudomonas aeruginosa) of the same molecule?
A: 8 µg/mL

Q: And the IC50 [2]?
A: 2300 nM

Q: Which MIC (Enterobacter cloacae) does the source give for `O=C([O-])C1=CS[C@@H]2/C(=C/c3cn4c(n3)CSCC4)C(=O)N12.[Na+]` here?
A: 32 µg/mL

Q: And the MIC (Serratia marcescens)?
A: 4 µg/mL

Q: What about the IC50 (Beta-lactamase) of the same molecule?
A: 420 nM

Q: And the MIC [1]?
A: 64 µg/mL

Q: What about the IC50 [3] of the same molecule?
A: 110 nM

Q: And the IC50 (Beta-lactamase TEM)?
A: 730 nM

Q: And the MIC (Pseudomonas aeruginosa)?
A: 64 µg/mL

Q: And the IC50 [2]?
A: > 10000 nM

Q: Which MIC (Enterobacter cloacae) does the source give for `C[C@]1(Cn2ccnn2)[C@H](C(=O)O)N2C(=O)C[C@H]2S1(=O)=O` [TAZOBACTAM] here?
A: 64 µg/mL (≈ 213 µM)

Q: What about the MIC (Serratia marcescens) of the same molecule?
A: 1 µg/mL (≈ 3.33 µM)

Q: And the MIC [1]?
A: 2 µg/mL (≈ 6.66 µM)

Q: What about the MIC (Pseudomonas aeruginosa) of the same molecule?
A: 64 µg/mL (≈ 213 µM)

Q: Which MIC (Enterobacter cloacae) does the source give for `O=C([O-])C1=CS[C@@H]2/C(=C/c3cn4c(n3)CNCC4)C(=O)N12.[Na+]` here?
A: 2 µg/mL

Q: What about the MIC (Serratia marcescens) of the same molecule?
A: 1 µg/mL

Q: And the IC50 (Beta-lactamase)?
A: 6 nM

Q: And the MIC [1]?
A: 2 µg/mL

Q: What about the IC50 [3] of the same molecule?
A: 320 nM

Q: And the IC50 (Beta-lactamase TEM)?
A: 5 nM

Q: And the MIC (Pseudomonas aeruginosa)?
A: 16 µg/mL

Q: What about the ED50 (Escherichia coli [4]) of the same molecule?
A: 27 mg/kg

Q: What about the IC50 [2] of the same molecule?
A: 28 nM

Q: For `O=C([O-])C1=CS[C@@H]2/C(=C\c3cc4n(n3)CCS(=O)(=O)C4)C(=O)N12.[Na+]`, which MIC (Enterobacter cloacae) is on record?
A: 16 µg/mL

Q: What about the MIC (Serratia marcescens) of the same molecule?
A: 1 µg/mL

Q: What about the IC50 (Beta-lactamase) of the same molecule?
A: 2 nM

Q: What about the MIC [1] of the same molecule?
A: 4 µg/mL

Q: And the IC50 [3]?
A: 43 nM

Q: And the IC50 (Beta-lactamase TEM)?
A: 1 nM

Q: What about the MIC (Pseudomonas aeruginosa) of the same molecule?
A: 2 µg/mL

Q: What about the ED50 (Escherichia coli [4]) of the same molecule?
A: 64 mg/kg

Q: What about the IC50 [2] of the same molecule?
A: 56 nM

Q: Which MIC (Enterobacter cloacae) does the source give for `O=C([O-])C1=CS[C@@H]2/C(=C\c3cc4n(n3)CCNC4)C(=O)N12.[Na+]` here?
A: 16 µg/mL

Q: And the MIC (Serratia marcescens)?
A: 1 µg/mL

Q: What about the IC50 (Beta-lactamase) of the same molecule?
A: 3 nM

Q: What about the MIC [1] of the same molecule?
A: 4 µg/mL

Q: What about the IC50 (Beta-lactamase TEM) of the same molecule?
A: 1 nM

Q: And the MIC (Pseudomonas aeruginosa)?
A: 0.5 µg/mL

Q: What about the ED50 (Escherichia coli [4]) of the same molecule?
A: 30 mg/kg

Q: And the IC50 [2]?
A: 123 nM

Q: For `O=C([O-])C1=CS[C@@H]2/C(=C\c3cc4n(n3)CCCC4)C(=O)N12.[Na+]`, which MIC (Enterobacter cloacae) is on record?
A: 4 µg/mL

Q: And the MIC (Serratia marcescens)?
A: 1 µg/mL

Q: And the IC50 (Beta-lactamase)?
A: 3 nM

Q: What about the MIC [1] of the same molecule?
A: 2 µg/mL

Q: What about the ED50 (Klebsiella aerogenes [5]) of the same molecule?
A: 86 mg/kg

Q: What about the IC50 (Beta-lactamase TEM) of the same molecule?
A: 2 nM

Q: And the MIC (Pseudomonas aeruginosa)?
A: 4 µg/mL

Q: What about the ED50 (Escherichia coli [4]) of the same molecule?
A: 28 mg/kg

Q: What about the IC50 [2] of the same molecule?
A: 90 nM

Q: What does the source list for `O=C([O-])C1=CS[C@@H]2/C(=C\c3cc4c(s3)CCN(Cc3cccnc3)C4)C(=O)N12.[Na+]`?
A: MIC (Enterobacter cloacae): 64 µg/mL; MIC (Serratia marcescens): 1 µg/mL; MIC [1]: 32 µg/mL; IC50 (Beta-lactamase TEM): 10 nM; MIC (Pseudomonas aeruginosa): 64 µg/mL; IC50 [2]: 40 nM

Q: Which MIC (Enterobacter cloacae) does the source give for `O=C([O-])C1=CS[C@@H]2/C(=C\c3cc4n(n3)CCOC4)C(=O)N12.[Na+]` here?
A: 8 µg/mL

Q: And the MIC (Serratia marcescens)?
A: 1 µg/mL

Q: What about the IC50 (Beta-lactamase) of the same molecule?
A: 6 nM

Q: And the MIC [1]?
A: 4 µg/mL

Q: And the IC50 (Beta-lactamase TEM)?
A: 4 nM

Q: And the MIC (Pseudomonas aeruginosa)?
A: 2 µg/mL

Q: What about the ED50 (Escherichia coli [4]) of the same molecule?
A: 19 mg/kg

Q: What about the IC50 [2] of the same molecule?
A: 20 nM

Q: Which results are given for `COc1ccc(CN2CCc3sc(/C=C4/C(=O)N5C(C(=O)[O-])=CS[C@H]45)cc3C2)cc1.[Na+]`?
A: MIC (Enterobacter cloacae): 32 µg/mL; MIC (Serratia marcescens): 1 µg/mL; IC50 (Beta-lactamase): 15 nM; MIC [1]: 8 µg/mL; IC50 [3]: 78 nM; IC50 (Beta-lactamase TEM): 2 nM; MIC (Pseudomonas aeruginosa): 32 µg/mL; IC50 [2]: 27 nM

Q: What does the source list for `O=C([O-])C1=CS[C@@H]2/C(=C\c3cc4n(n3)CCSC4)C(=O)N12.[Na+]`?
A: MIC (Enterobacter cloacae): 8 µg/mL; MIC (Serratia marcescens): 0.5 µg/mL; IC50 (Beta-lactamase): 1 nM; MIC [1]: 4 µg/mL; ED50 (Klebsiella aerogenes [5]): 123 mg/kg; MIC (Pseudomonas aeruginosa): 2 µg/mL; ED50 (Escherichia coli [4]): 31 mg/kg; IC50 [2]: 18 nM

Q: With `O=C([O-])C1=CS[C@@H]2/C(=C/c3cn4c(n3)COCC4)C(=O)N12.[Na+]` as the molecule, how does the MIC (Enterobacter cloacae) read?
A: 8 µg/mL

Q: And the MIC (Serratia marcescens)?
A: 1 µg/mL

Q: What about the IC50 (Beta-lactamase) of the same molecule?
A: 5 nM

Q: What about the MIC [1] of the same molecule?
A: 2 µg/mL

Q: What about the IC50 [6] of the same molecule?
A: 6.2 nM

Q: What about the ED50 (Klebsiella aerogenes [5]) of the same molecule?
A: 96 mg/kg

Q: What about the IC50 [3] of the same molecule?
A: 66 nM

Q: And the IC50 (Beta-lactamase TEM)?
A: 0.4 nM

Q: And the MIC (Pseudomonas aeruginosa)?
A: 1 µg/mL

Q: What about the ED50 (Escherichia coli [4]) of the same molecule?
A: 23 mg/kg

Q: And the IC50 [2]?
A: 8 nM

Q: And the IC50 [7]?
A: 9 nM

Q: With `CCN1CCN(C(=O)NC(C(=O)N[C@@H]2C(=O)N3C2SC(C)(C)[C@@H]3C(=O)O)c2ccccc2)C(=O)C1=O` (single isomer, unassigned) [PIPERACILLIN] as the molecule, how does the ED50 (Escherichia coli [8]) read?
A: 165 mg/kg

Q: What about the ED50 (Klebsiella aerogenes [9]) of the same molecule?
A: 421 mg/kg

Q: Which MIC (Enterobacter cloacae) does the source give for `O=C([O-])C1=CS[C@@H]2/C(=C\c3cc4n(n3)CCCO4)C(=O)N12.[Na+]` here?
A: 4 µg/mL

Q: And the MIC (Serratia marcescens)?
A: 1 µg/mL

Q: And the IC50 (Beta-lactamase)?
A: 5 nM

Q: What about the MIC [1] of the same molecule?
A: 4 µg/mL

Q: And the IC50 [3]?
A: 140 nM

Q: What about the IC50 (Beta-lactamase TEM) of the same molecule?
A: 6 nM

Q: What about the MIC (Pseudomonas aeruginosa) of the same molecule?
A: 1 µg/mL

Q: What about the ED50 (Escherichia coli [4]) of the same molecule?
A: 90 mg/kg

Q: And the IC50 [2]?
A: 413 nM

Reference: ChEMBL document CHEMBL1137415, “Structure-activity relationship of 6-methylidene penems bearing 6,5 bicyclic heterocycles as broad-spectrum beta-lactamase inhibitors: evidence for 1,4-thiazepine intermediates with C7 R stereochemistry by computational methods” (J Med Chem, 2006)
